The source of these data is patent publication US5324747A, “N-substituted anilines, inhibitors of phospholipases A2” (Hoffmann-La Roche Inc., priority 1992, dated 1994).

Each structure is given as a SMILES string.

For assay [1], the system named is rat carrageenan-induced paw edema. Briefly: Rat Carrageenan Paw Edema. It counts as in vivo, Lewis rats. Particulars: 2 h; for inhibition in vivo at 30 mg/kg: 30 mg/kg ip. The procedure: Rat Carrageenan Paw Edema
Representative compounds of the invention were tested in rat carrageenan-induced paw edema to determine their ability to inhibit this acute inflammatory response. Test compounds are administered intraperitoneally or orally to groups of seven Lewis rats (≈200 gm) 1 hr prior to carrageenan administration. The test compounds are dissolved in dimethyl sulfoxide for intraperitoneal administration and dissolved or suspended in Labrafil […] for oral administration. At 0 hour, 0.1 mL of 1% carrageenan dissolved in pyrogen free saline is injected subplantarly into the right hind paw to elicit the inflammatory response. The volume (in mL) of the right hind paw is measured by immersion of the paw to the level of the lateral malleolus in an aqueous plethysmometer immediately prior to the injection of carrageenan and then at 1, 2 and 4 hr after carrageenan injection. The paw edema is calculated by substracting the zero time reading from the readings taken after injection. The percent change of the edema volume from the vehicle treated control is calculated to determine the activity of the test compound. Statistical analysis of the mean paw edema values of the control versus the treated groups are performed using Student's t-test.
A general note: The carrageenan paw model is a standard test of acute inflammation.

In assay [2] the test system is Croton Oil Mouse Ear Edema. Briefly: Croton Oil Mouse Ear Edema Test. It counts as in vivo, CD-1 mice. The following applies: topical, coapplied, 6 hours.
Another assay has as its system PLA2 Rat Paw Edema. Briefly: Phospholipase A2 Rat Paw Edema. The assay is classed as in vivo, Lewis rats. Particulars: Rattus norvegicus; 2 hr; 30 mg/kg; read-out: % Inhib of PLA2 Rat Paw Edema 2 hr (30 mg/kg). A digest of the protocol: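 Lewis rats (~200 g, n=7) dosed i.p. (in DMSO) or orally (in Labrafil M-1944CS) 1 h before subplantar injection of 5 ug Naja naja PLA2 into right hind paw. Paw volume by plethysmometry at 0.5, 2 and 4 hr minus baseline; % change versus vehicle, Student's t-test.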

A further assay has as its target T1, HSF-PLA2 (Homo sapiens, UniProt P14555).
T1 construct: extracellular enzyme obtained from human synovial fluid (HSF-PLA2); from tissue; host or cells: pooled human synovial fluid, added at 0.1% (v/v)
T1 sequence (P14555 21-144): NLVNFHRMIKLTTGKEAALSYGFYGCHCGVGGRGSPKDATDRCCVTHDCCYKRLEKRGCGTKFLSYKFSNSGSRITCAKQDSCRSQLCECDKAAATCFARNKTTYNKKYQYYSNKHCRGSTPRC
The experiment in a line: Assay for Inhibition of HSF-PLA2 In Vitro. It counts as biochemical. Particulars: for IC50: read-out: Inhib of HSF-PLA2 IC50. A digest of the protocol:
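Extracellular PLA2 isolated from human synovial fluid, incubated 30 min at 37 °C with 14C-labelled phospholipid substrate in duplicate. Lipids were chloroform-extracted, and released 14C-oleic acid was separated from substrate by silica TLC; a no-enzyme control was run in each experiment.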

Assay [3] relates to adjuvant arthritis model in rats. Briefly: Established Adjuvant Arthritis Test. It counts as in vivo. On the procedure: Established Adjuvant Arthritis Test
Representative compounds of the invention were tested in the standard adjuvant arthritis model in rats, induced by Freunds complete adjuvant, as described by C. E. Brinckerhoff, J. W. Coffey and A. C. Sullivan, Science, 221, p. 756-758 (1983).

The mark [4] stands for this setting: read-out: Inhib of HSF-PLA2, % inhibition.

The term inhibition denotes the drop in the measured response relative to a control, in per cent. As for `CCCCCCCCCCCCCCCCCCOc1cc(OCCCOc2ccc(S(C)(=O)=O)cc2)cc(N(CC(=O)O)CC(=O)O)c1` [Example 161, N-(Carboxymethyl)-N-[3-[3-[4-(methylsulfonyl)phenoxy]propoxy]-5-(octadecyloxy)phenyl]glycine], the inhibition in vivo at 30 mg/kg in assay [1] came to 56%; with PLA2 Rat Paw Edema it was 66%. For the same molecule, the “% Inhib of Croton Oil Mouse Ear Edema (1 mg)” value (“% Inhib” for short) in assay [2] was 87%. For the same molecule, at HSF-PLA2 (setting [4]), the inhibition at 1 µM came out at 100%.

For `CCCCCCCCCCCCCCCCCCOc1cc(OCCCOc2ccc(C(C)(C)C)cc2)cc(N(CC(=O)O)CC(=O)O)c1` [Example 177, N-(Carboxymethyl)-N-[3-[3-[4-(1,1-dimethylethyl)phenoxy]propoxy]-5-(octadecyloxy)phenyl]glycine], the inhibition in vivo at 30 mg/kg in assay [1] was 57%; with PLA2 Rat Paw Edema it was 41%. Moreover, the “% Inhib” value in assay [2] is given as 22%. Further, at HSF-PLA2 (setting [4]), the inhibition at 1 µM turned out to be 95%.

The term IC50 denotes the concentration that inhibits the measured activity by half. Take `CCCCCCCCCCOc1cccc(N(CC(=O)O)CC(=O)O)c1` [Example 36a, N-(carboxymethyl)-N-[3-(decyloxy)phenyl]glycine]: the inhibition in vivo at 30 mg/kg is 47% in assay [1] and 35% in the assay on PLA2 Rat Paw Edema. The concentration for half-maximal inhibition (IC50) at HSF-PLA2 is 2900 nM.

As to `CCCCCCCCCCCCCCCCCCOc1cc(OCCCCCc2cccc(O)c2O)cc(N(CC(=O)O)CC(=O)O)c1` [Example 146], the figures for the inhibition in vivo at 30 mg/kg (in assay [1]; in the assay on PLA2 Rat Paw Edema) were 55% and 74%, respectively. Moreover, the “% Inhib” value in assay [2] came out at 18%. For the same molecule, the half-maximal inhibitory concentration (IC50) at HSF-PLA2 turned out to be 200 nM.

In the case of `CCCCCCCCCCCCCCCCCCOc1cc(C(=O)O)cc(N(CC(=O)O)CC(=O)O)c1` [Example 70, N-[3-Carboxy-5-(octadecyloxy)phenyl]-N-(carboxymethyl)glycine], the “% Inhib” value in assay [2] stood at 0%. Further, the inhibition in vivo at 30 mg/kg in the assay on PLA2 Rat Paw Edema was found to be 45%. In addition, the “Change in Paw Volume (mL) Treated” value in assay [3] (10 mg/kg ip) was 0.30 ± 0.09 mL. Also, on HSF-PLA2, the IC50 amounted to 1000 nM.

`CCCCCCCCCCCCCCCCCCOc1cc(OCCCP(=O)(O)OCC)cc(N(CC(=O)O)CC(=O)O)c1` [Example 89]: the inhibition in vivo at 30 mg/kg with PLA2 Rat Paw Edema amounted to 45%. The “Change in Paw Volume (mL) Treated” value in assay [3] (30 mg/kg ip) is -0.68 ± 0.08 mL. For the same molecule, on HSF-PLA2 (setting [4]), the inhibition at 1 µM came to 31%.

Take `CCCCCCCCCCCCCCCCCCOc1cc(OCCCOc2ccc([S+](C)[O-])cc2)cc(N(CC(=O)O)CC(=O)O)c1` (stereo not drawn) [Example 159]: the inhibition in vivo at 30 mg/kg was 44% in assay [1] and 78% in the assay on PLA2 Rat Paw Edema. Moreover, in assay [2], the “% Inhib” value was found to be 59%. In addition, the inhibition at 1 µM at HSF-PLA2 (setting [4]) was 100%.

For `CCCCCCCCCCCCCCCCCCOc1cc(OCCCCC(=O)OC)cc(N(CC(=O)O)CC(=O)O)c1` [Example 64], the inhibition in vivo at 30 mg/kg was determined as 69% in assay [1] and 61% with PLA2 Rat Paw Edema. Further, the “% Inhib” value in assay [2] is 87%. Also, in assay [3] (10 mg/kg ip), the “Change in Paw Volume (mL) Treated” value was found to be 0.65 ± 0.12 mL. For the same molecule, on HSF-PLA2, the IC50 amounted to 60 nM.

`CCCCCCCCCCCCCCCCCCOc1cc(OCCCOc2cccc([N+](=O)[O-])c2)cc(N(CC(=O)O)CC(=O)O)c1` [Example 58m, N-(carboxymethyl)-N-[3-[3-(3-nitrophenoxy)propoxy]-5-(octadecyloxy)phenyl]glycine] gave an inhibition in vivo at 10 mg/kg in assay [1] (10 mg/kg ip) of 61%. Further, in assay [2], the “% Inhib” value came to 60%. In the assay with PLA2 Rat Paw Edema, the inhibition in vivo at 30 mg/kg amounted to 52%. The “Change in Paw Volume (mL) Treated” value in assay [3] (10 mg/kg ip) was determined as 0.40 ± 0.13 mL. For the same molecule, the inhibition at 1 µM at HSF-PLA2 (setting [4]) was determined as 79%.

For `O=C(O)CN(CC(=O)O)c1cc(OCCCOc2ccccc2-c2ccccc2)cc(OCCCOc2ccccc2-c2ccccc2)c1` [Example 6l], the “% Inhib” value in assay [2] is reported as 30%. Besides, the inhibition in vivo at 30 mg/kg in the assay on PLA2 Rat Paw Edema was 0%. Besides, the IC50 at HSF-PLA2 was found to be 420 nM.

Turning to `O=C(O)CCCCCCCCCCOc1cc(OCCCCCCCCCCC(=O)O)cc(N(CC(=O)O)CC(=O)O)c1` [Example 6k, N-(carboxymethyl)-N-[3,5-bis[(11-hydroxy-11-oxoundecyl)oxy]phenyl]glycine], the “% Inhib” value in assay [2] is given as 16%. Moreover, the inhibition in vivo at 30 mg/kg with PLA2 Rat Paw Edema turned out to be 0%. The inhibition at 10 µM on HSF-PLA2 ((10 μM), read-out: Inhib of HSF-PLA2, % inhibition) was found to be 35%.

Take `CCCCCCCCCCCCCCCCCCOc1cc(OCCOc2ccc3ccccc3c2)cc(N(CC(=O)O)CC(=O)O)c1` [Example 58h, N-(carboxymethyl)-N-[3-[2-(2-naphthalenyloxy)ethoxy]-5-(octadecyloxy)phenyl]glycine]: the “% Inhib” value in assay [2] is recorded as 3%. For the same molecule, the inhibition in vivo at 30 mg/kg with PLA2 Rat Paw Edema turned out to be 31%. Moreover, the IC50 on HSF-PLA2 was found to be 50 nM.

Consider `CCCCCCCCCCCCCCCCCCOc1cc(N(CC(=O)O)CC(=O)O)cc([S+]([O-])CC(=O)O)c1` (stereo not drawn) [Example 168, [[3-[bis(Carboxymethyl)amino]-5-(octadecyloxy)phenyl]sulfinyl]acetic acid], for which the “% Inhib” value in assay [2] was 83%. The inhibition in vivo at 30 mg/kg in the assay with PLA2 Rat Paw Edema amounted to 45%. Also, the inhibition at 1 µM on HSF-PLA2 (setting [4]) is 26%.

As to `CCCCCCCCCCCCCCCCCCOc1cc(OCCOCCOCCOCC)cc(N(CC(=O)O)CC(=O)O)c1` [Example 151], the “% Inhib” value in assay [2] came to 54%. Also, the inhibition in vivo at 30 mg/kg in the assay with PLA2 Rat Paw Edema amounted to 43%. In addition, the “Change in Paw Volume (mL) Treated” value in assay [3] (10 mg/kg ip) is reported as 0.28 ± 0.16 mL. Moreover, on HSF-PLA2 (setting [4]), the inhibition at 1 µM was 100%.

In the case of `CCCCCCCCCCCCCCCCCCOc1cc(OCC(=O)OC)cc(N(CC(=O)O)CC(=O)O)c1` [Example 58b, N-(carboxymethyl)-N-[3-(2-methoxy-2-oxoethoxy)-5-(octadecyloxy)phenyl]glycine], the “% Inhib” value in assay [2] worked out at 19%. Moreover, the inhibition in vivo at 30 mg/kg in the assay with PLA2 Rat Paw Edema stood at 20%. Besides, the inhibition at 5 µM on HSF-PLA2 (setting [4]) worked out at 91%.

Turning to `CCCCCCCCCCCCCCCCCCOc1cc(OCCCOc2cccc(Br)c2)cc(N(CC(=O)O)CC(=O)O)c1` [Example 108, N-(Carboxymethyl)-N-3-[3-[3-(bromophenoxy)propoxy]-5-(octadecyloxy)phenyl]glycine], the inhibition in vivo at 30 mg/kg turned out to be 33% in assay [1] and 12% in the assay with PLA2 Rat Paw Edema. Also, in assay [2], the “% Inhib” value was 34%. In addition, at HSF-PLA2 (setting [4]), the inhibition at 1 µM is 92%.

For `CCCCCCCCCCCCCCCCCCOc1cc(OCCCCc2ccc3cc(O)c(O)cc3c2)cc(N(CC(=O)O)CC(=O)O)c1` [Example 154, N-(Carboxymethyl)-N-[3-[4-(2,3-dihydroxy-6-naphthalenyl)butoxy]-5-(octadecyloxy)phenyl]glycine], the inhibition in vivo at 30 mg/kg in assay [1] is 70%; in the assay with PLA2 Rat Paw Edema, 78%. Further, on HSF-PLA2 (setting [4]), the inhibition at 1 µM was determined as 96%.

As to `CCCCCCCCCCCCCCCCCCOc1cc(C(N)=O)cc(N(CC(=O)O)CC(=O)O)c1` [Example 75, N-(Carboxymethyl)-N-[(3-carbamoyl)-5-(octadecyloxy)phenyl]glycine], the “% Inhib” value in assay [2] was determined as 15%. For the same molecule, in the assay with PLA2 Rat Paw Edema, the inhibition in vivo at 30 mg/kg was 33%. On HSF-PLA2 (setting [4]), the inhibition at 5 µM turned out to be 84%.

Take `CCCCCCCCCCCCCCCCCNC(=O)Oc1cccc(N(CC(=O)O)CC(=O)O)c1` [Example 36c, N-(carboxymethyl)-N-[3-[[(heptadecylamino)carbonyl]oxy]phenyl]glycine]: the “% Inhib” value in assay [2] is recorded as 0%. Besides, the inhibition in vivo at 30 mg/kg in the assay with PLA2 Rat Paw Edema is 0%. Besides, on HSF-PLA2, the IC50 was 1000 nM.

Turning to `CCCCCCCCCCCCCCCCCCOc1cc(NS(=O)(=O)C(F)(F)F)cc(N(CC(=O)O)CC(=O)O)c1` [Example 162, N-(Carboxymethyl)-N-[3-(octadecyloxy)-5-[[(trifluoromethyl)sulfonyl]amino]phenyl]glycine], the inhibition in vivo at 30 mg/kg in assay [1] was 69%; in the assay with PLA2 Rat Paw Edema, 65%. The “% Inhib” value in assay [2] came out at 79%. Besides, the inhibition at 1 µM at HSF-PLA2 (setting [4]) came to 82%.

Turning to `CCCCCCCCCCCCCCCCCCOc1cc(OCCCOc2cccc(OC)c2)cc(N(CC(=O)O)CC(=O)O)c1` [Example 58j, N-(carboxymethyl)-N-[3-[3-(3-methoxyphenoxy)propoxy]-5-(octadecyloxy)phenyl]glycine], the “% Inhib” value in assay [2] is 28%. In the assay with PLA2 Rat Paw Edema, the inhibition in vivo at 30 mg/kg stood at 57%. For the same molecule, the IC50 on HSF-PLA2 stood at 60 nM.
